Legend:
Progesterone receptor = biological target: T1, Progesterone receptor (Homo sapiens, UniProt P06401); assay: Antagonist activity at progesterone receptor in human T47D cells assessed as inhibition of progesterone-induced alkaline phosphatase activity; type: functional, cell-based
T1 sequence (P06401 whole entry): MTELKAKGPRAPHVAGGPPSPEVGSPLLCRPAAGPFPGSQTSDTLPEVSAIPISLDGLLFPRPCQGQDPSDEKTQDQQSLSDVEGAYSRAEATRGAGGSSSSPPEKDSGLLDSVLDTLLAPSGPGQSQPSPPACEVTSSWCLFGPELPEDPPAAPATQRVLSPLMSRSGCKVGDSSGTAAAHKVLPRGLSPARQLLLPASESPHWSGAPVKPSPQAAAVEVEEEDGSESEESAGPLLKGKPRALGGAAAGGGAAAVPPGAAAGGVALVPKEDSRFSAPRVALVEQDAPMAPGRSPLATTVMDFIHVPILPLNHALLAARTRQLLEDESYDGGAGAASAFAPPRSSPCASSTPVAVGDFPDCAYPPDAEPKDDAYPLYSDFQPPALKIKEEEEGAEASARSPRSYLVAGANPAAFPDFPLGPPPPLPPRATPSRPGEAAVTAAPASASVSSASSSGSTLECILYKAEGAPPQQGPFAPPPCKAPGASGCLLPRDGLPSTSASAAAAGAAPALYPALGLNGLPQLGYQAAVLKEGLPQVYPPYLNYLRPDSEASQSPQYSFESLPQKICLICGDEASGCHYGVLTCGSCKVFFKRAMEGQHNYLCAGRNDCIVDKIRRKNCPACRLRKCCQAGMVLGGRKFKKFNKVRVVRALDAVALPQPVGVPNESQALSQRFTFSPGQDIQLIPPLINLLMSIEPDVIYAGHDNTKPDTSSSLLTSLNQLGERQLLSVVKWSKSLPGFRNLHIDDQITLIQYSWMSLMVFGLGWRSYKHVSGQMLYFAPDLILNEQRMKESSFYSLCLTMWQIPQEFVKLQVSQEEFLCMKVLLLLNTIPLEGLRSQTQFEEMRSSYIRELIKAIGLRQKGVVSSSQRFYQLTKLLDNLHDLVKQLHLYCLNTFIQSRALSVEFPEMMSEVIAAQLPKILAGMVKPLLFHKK

Glucocorticoid receptor = biological target: T2, Glucocorticoid receptor (Homo sapiens, UniProt P04150); assay: Antagonist activity at glucocorticoid receptor in human A549 cells assessed as inhibition of corticoid-induced GRE-linked luciferase reporter gene activity; type: functional, cell-based
T2 sequence (P04150 whole entry): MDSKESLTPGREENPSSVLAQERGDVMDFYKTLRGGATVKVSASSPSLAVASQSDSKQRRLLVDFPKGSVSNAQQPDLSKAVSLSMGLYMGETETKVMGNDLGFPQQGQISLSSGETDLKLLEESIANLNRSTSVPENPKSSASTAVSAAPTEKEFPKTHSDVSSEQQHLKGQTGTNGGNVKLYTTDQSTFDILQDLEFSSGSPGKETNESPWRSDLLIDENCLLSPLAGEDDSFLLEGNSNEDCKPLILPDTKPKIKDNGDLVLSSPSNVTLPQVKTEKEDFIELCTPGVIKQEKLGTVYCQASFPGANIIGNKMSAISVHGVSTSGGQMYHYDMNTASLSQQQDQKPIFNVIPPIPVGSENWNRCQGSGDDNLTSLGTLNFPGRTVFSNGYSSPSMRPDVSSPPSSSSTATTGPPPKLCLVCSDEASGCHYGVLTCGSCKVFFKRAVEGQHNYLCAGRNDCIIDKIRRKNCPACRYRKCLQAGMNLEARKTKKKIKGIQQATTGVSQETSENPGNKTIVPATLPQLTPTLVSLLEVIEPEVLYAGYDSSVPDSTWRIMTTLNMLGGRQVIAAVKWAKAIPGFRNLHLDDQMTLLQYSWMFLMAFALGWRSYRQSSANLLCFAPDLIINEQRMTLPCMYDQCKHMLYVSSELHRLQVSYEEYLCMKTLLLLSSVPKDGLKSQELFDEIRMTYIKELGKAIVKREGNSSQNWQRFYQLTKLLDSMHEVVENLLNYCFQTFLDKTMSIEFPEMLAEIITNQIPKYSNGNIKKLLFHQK

Homo sapiens = species on record: Homo sapiens; assay: Selectivity for human progesterone receptor over human glucocorticoid receptor

SMILES	IC50 (Progesterone receptor) [nM]	IC50 (Glucocorticoid receptor) [nM]	Ratio IC50 (Homo sapiens)
CN(C)c1ccc([C@H]2C[C@@]3(C)[C@@H](CC[C@@]3(O)C#CC(F)(F)F)[C@@H]3OCC4=CC(=O)CCC4=C32)cc1	9.3	55.5	6
CN(C)c1ccc([C@H]2C[C@@]3(C)[C@@H](CC[C@@]3(O)C#CC(C)(C)O)[C@@H]3OCC4=CC(=O)CCC4=C32)cc1	> 1000	558	–
CN(C)CC#C[C@]1(O)CC[C@H]2[C@@H]3OCC4=CC(=O)CCC4=C3[C@@H](c3ccc(N(C)C)cc3)C[C@@]21C	> 1000	> 3000	–
CN(C)c1ccc([C@H]2C[C@@]3(C)[C@@H](CC[C@@]3(O)C#CC3CC3)[C@@H]3OCC4=CC(=O)CCC4=C32)cc1	9.6	33.4	4
CN(C)c1ccc([C@H]2C[C@@]3(C)[C@@H](CC[C@@]3(O)C#CC(C)(C)C)[C@@H]3OCC4=CC(=O)CCC4=C32)cc1	185	167	1

Further compounds by falling IC50 (Progesterone receptor), results first:

IC50 (Progesterone receptor) [nM]	IC50 (Glucocorticoid receptor) [nM]	Ratio IC50 (Homo sapiens)	SMILES
19	204	11	C#C[C@]1(O)CC[C@H]2[C@@H]3OCC4=CC(=O)CCC4=C3[C@@H](c3ccc(N(C)C)cc3)C[C@@]21C
7.5	86.5	12	CC#C[C@]1(O)CC[C@H]2[C@@H]3OCC4=CC(=O)CCC4=C3[C@@H](c3ccc(N(C)C)cc3)C[C@@]21C
1.4	304	217	CN(C)c1ccc([C@H]2C[C@@]3(C)[C@@H](CC[C@@]3(O)C#Cc3ccccc3)[C@@H]3OCC4=CC(=O)CCC4=C32)cc1
